Results on one compound are retold here after patent publication US10757937B2, “Sulfonamides that activate ABA receptors” (The Regents of the University of California, priority 2014, dated 2020).

Assay [1] deals with T1, PYL5 (Arabidopsis thaliana, UniProt Q9FLB1).
T1 construct: 6X-His; made in house; host or cells: E. coli BL21[DE3]pLysS
T1 sequence (Q9FLB1 1-203): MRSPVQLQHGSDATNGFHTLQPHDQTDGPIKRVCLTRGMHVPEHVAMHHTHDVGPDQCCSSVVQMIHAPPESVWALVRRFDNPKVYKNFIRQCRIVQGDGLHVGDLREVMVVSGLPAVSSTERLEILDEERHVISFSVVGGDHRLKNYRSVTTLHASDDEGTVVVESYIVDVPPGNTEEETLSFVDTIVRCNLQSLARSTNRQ
T1 sequence (Q9CAJ0 23-511 partner): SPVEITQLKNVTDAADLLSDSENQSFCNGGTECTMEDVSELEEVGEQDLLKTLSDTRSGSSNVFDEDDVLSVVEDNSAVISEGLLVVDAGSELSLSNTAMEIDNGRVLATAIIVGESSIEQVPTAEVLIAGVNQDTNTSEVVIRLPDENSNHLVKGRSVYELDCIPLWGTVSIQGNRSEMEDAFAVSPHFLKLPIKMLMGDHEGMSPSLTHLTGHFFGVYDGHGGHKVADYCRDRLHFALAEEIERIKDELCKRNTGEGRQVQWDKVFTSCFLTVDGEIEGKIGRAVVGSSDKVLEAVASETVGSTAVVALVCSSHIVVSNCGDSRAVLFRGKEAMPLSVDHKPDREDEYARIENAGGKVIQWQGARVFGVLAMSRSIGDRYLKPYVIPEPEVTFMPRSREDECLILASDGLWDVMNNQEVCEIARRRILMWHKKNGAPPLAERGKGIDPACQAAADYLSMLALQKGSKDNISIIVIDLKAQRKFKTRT
In words: receptor-mediated PP2C (HAB1) inhibition in vitro assay. Format: biochemical. An outline of the steps:
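Compounds, tested at 25 μM or 50 uM with ABA at 10 uM, were incubated with recombinant receptor and 50 nM GST-HAB1 (2:1 ratio) in MnCl2-containing Tris-OAc buffer, pH 7.9. Phosphatase activity was followed by 4-methylumbelliferyl-phosphate fluorescence.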

The target of assay [2] is T2, PYL2 (Arabidopsis thaliana, UniProt O80992).
T2 construct: 6X-His; made in house; host or cells: E. coli BL21[DE3]pLysS
T2 sequence (O80992 1-190): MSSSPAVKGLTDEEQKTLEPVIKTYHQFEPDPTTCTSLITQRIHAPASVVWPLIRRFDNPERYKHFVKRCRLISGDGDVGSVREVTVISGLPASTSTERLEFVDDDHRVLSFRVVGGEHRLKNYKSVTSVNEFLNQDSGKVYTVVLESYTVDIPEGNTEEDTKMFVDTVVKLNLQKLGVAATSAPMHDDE
T2 sequence (Q9CAJ0 23-511 partner): T1 sequence (Q9CAJ0 23-511 partner)
The assay is described as above. Format: biochemical. An outline of the steps:
(§1)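 His-tagged receptors (MBP fusion for PYL11) at 2:1 ratio to 50 nM GST-HAB1 in 100 mM Tris-OAc pH 7.9, 100 mM NaCl, 1 mM MnCl2; 4-methylumbelliferyl-phosphate fluorogenic substrate. Compounds at 50 uM (ABA 10 uM); IC50 from dose curves for selected compounds.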

In assay [3] the target is T3, PYL3 (Arabidopsis thaliana, UniProt Q9SSM7).
T3 construct: 6X-His; made in house; host or cells: E. coli BL21[DE3]pLysS
T3 sequence (Q9SSM7 1-209): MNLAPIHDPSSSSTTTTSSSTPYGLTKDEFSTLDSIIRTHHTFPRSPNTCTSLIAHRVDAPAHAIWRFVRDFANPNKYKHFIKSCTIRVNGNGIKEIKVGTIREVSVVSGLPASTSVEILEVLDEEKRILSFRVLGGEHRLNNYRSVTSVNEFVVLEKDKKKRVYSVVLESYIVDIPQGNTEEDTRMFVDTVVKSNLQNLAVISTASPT
T3 sequence (Q9CAJ0 23-511 partner): T1 sequence (Q9CAJ0 23-511 partner)
Described as above. Format: biochemical. The procedure, abridged:
as §1

In assay [4] the test system is Arabidopsis seed germination and hypocotyl growth. Kind of assay: Arabidopsis seed germination and hypocotyl growth. Format: in vivo. As to conditions: Arabidopsis thaliana, Germination Effects III, tested at 1, 5, 10, 25 and 50 uM, — = none. An outline of the steps: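 Wild-type seeds germinated on ½× Murashige and Skoog medium with compound at 10 and 50 uM, or in a later series at 1, 5, 10, 25 and 50 uM. Reported value is the lowest tested concentration that inhibited germination or hypocotyl growth in wells where seeds germinated.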

Molecules are shown by their SMILES. Like-named read-outs stand apart in the source and are kept apart here.

`N#Cc1ccc(CS(=O)(=O)NC(=O)C2(c3ccsc3)CCCCC2)cc1Br` [Compound 106, N-[(4-Cyano-3-bromophenyl)methanesulfonyl]-1-(thiophen-3-yl)cyclohexane-1-carboxamide]: the remaining activity at 50 µM in assay [1] (50 uM of the test compound) was found to be 11.9%; in assay [2] (50 uM of the test compound) it was 29.6%; in assay [3] (50 uM of the test compound), 96.9%. The IC50 in assay [1] (Table XII-B, calculated from dose curves, read-out: PP2C Activity (IC50 in uM) PYL5) was 7.26 µM; in assay [2] (Table XII-B, calculated from dose curves, read-out: PP2C Activity (IC50 in uM) PYL2), 33 µM; in assay [3] (Table XII-B, calculated from dose curves, read-out: PP2C Activity (IC50 in uM) PYL3), > 50 µM. For the same compound, the minimal effective concentration is 1 µM in assay [4] (lowest concentration inhibiting hypocotyl growth, read-out: Growth Inhibition) and 1 µM in assay [4] (lowest inhibiting concentration, read-out: Germination Inhibition).
